According to PubChem BioAssay AID334 (DTP/NCI, 2004):
“And” between values parts separate entries of the source, which are not always exact repeats. Equal values may be shown once. Toxic doses and inconclusive results are not listed. How the source made its calls: active means survival T/C of 150% or more; inactive means T/C below 125% in these data.

Tested on: CD2F1 mice, intracerebral P388 leukemia, median survival T/C%
Test: NCI In Vivo Anticancer Drug Screen. Data for tumor model P388 Leukemia (intracerebral) in CD2F1 (CDF1) mice
Conditions: endpoint: median survival time, schedule: Q01DX009 (ip), higher = longer survival
Description: The antitumor activity of compounds was measured in mice bearing transplantable tumors. Survival or tumor size were measured and the results are expressed as the measurement made in the treated group (T) divided by the measurement made in the vehicle treated control group (C). The tumor model used in this assay is P388 Leukemia (intracerebral) in CD2F1 (CDF1) mice

Measured: T/C

CCC(=O)O[C@H]1CC[C@H]2[C@@H]3CC[C@H]4CC(=O)[C@H](C)C[C@]4(C)[C@H]3CC[C@]12C
inactive: dose: 8.0 mg/kg/injection, vehicle: Klucel (hydroxypropylcellulose) (HPC) 121 % of control and 105 % of control | dose: 8.0 mg/kg/injection, vehicle: saline with Tween-80 100 % of control and 106 % of control | dose: 16.0 mg/kg/injection, vehicle: Klucel (hydroxypropylcellulose) (HPC) 94 % of control and 103 % of control | dose: 16.0 mg/kg/injection, vehicle: saline with Tween-80 100 % of control and 106 % of control | dose: 32.0 mg/kg/injection, vehicle: Klucel (hydroxypropylcellulose) (HPC) 123 % of control and 98 % of control | dose: 32.0 mg/kg/injection, vehicle: saline with Tween-80 97 % of control and 100 % of control | dose: 64.0 mg/kg/injection, vehicle: Klucel (hydroxypropylcellulose) (HPC) 123 % of control and 100 % of control | dose: 64.0 mg/kg/injection, vehicle: saline with Tween-80 116 % of control and 91 % of control | dose: 128.0 mg/kg/injection, vehicle: Klucel (hydroxypropylcellulose) (HPC) 120 % of control and 102 % of control | dose: 128.0 mg/kg/injection, vehicle: saline with Tween-80 95 % of control and 106 % of control | dose: 256.0 mg/kg/injection, vehicle: Klucel (hydroxypropylcellulose) (HPC) 114 % of control and 94 % of control | dose: 256.0 mg/kg/injection, vehicle: saline with Tween-80 100 % of control and 109 % of control | dose: 512.0 mg/kg/injection, vehicle: Klucel (hydroxypropylcellulose) (HPC) 111 % of control | dose: 512.0 mg/kg/injection, vehicle: saline with Tween-80 91 % of control and 106 % of control
